Series [1] in a line: Water solubility / ionisation at physiological pH. It is filed as physicochemical.
The nature of series [2]: Bioavailability after oral administration. It is filed as in vivo.

SMILES strings stand for the structures. Structures can show the parent of a compound that is named as a salt. Where two headings read alike, the source gives them in different places.

For the molecule `Cn1cc(-c2ccc3c(c2)ncn3-c2cc(NS(=O)(=O)C3CC3)cc(-c3ccc(F)cc3F)c2)cn1` [Compound (I) HCl salt, hydrochloride salt of N-(2′,4′-difluoro-5-(5-(1-methyl-1H-pyrazol-4-yl)-1H-benzo[d]imidazol-1-yl)-[1,1′-biphenyl]-3-yl)cyclopropanesulfonamide], in series [1] (hydrochloride salt forms compared with compound (I)), the “water solubility of the salt form” value is on record as “enhanced”. The “bioavailability after oral administration” value in series [2] (listed as Hydrochloride salt forms of compound (I)) is recorded as “improved”.
With `Cn1cc(-c2ccc3c(c2)ncn3-c2cc(NS(=O)(=O)C3CC3)cc(-c3ccc(F)cc3F)c2)cn1` [Compound (I), N-(2′,4′-difluoro-5-(5-(1-methyl-1H-pyrazol-4-yl)-1H-benzo[d]imidazol-1-yl)-[1,1′-biphenyl]-3-yl)cyclopropanesulfonamide], the solubility in water entry in series [1] (physiological pH range) was “practically insoluble”. Further, the ionisation state result in series [1] (within the physiological pH range) is “neutral”. In series [2], the “bioavailability after oral administration” value is reported as “very low”.

The values are drawn from patent publication US20230119355A1, “PHARMACEUTICAL COMPOSITIONS OF A KINASE INHIBITOR” (AURIGENE DISCOVERY TECHNOLOGIES LIMITED, priority 2020, published 2023).
